According to patent US10774098B2, “Nahlsgen optical resolution method” (KYOTO UNIVERSITY, priority 2016, dated 2020):

Test system: normal human epidermal cells
Experiment: glutathione production promotion activity (glutathione reductase recycling assay)
Type: cell-based
Conditions: for GSH (pmol/μg protein) Mean: cultivation for 24 hours
From the text: The equal amount mixture obtained in Example 1 was used as a sample and evaluated for glutathione production promotion activity by the following procedure.
Specifically, normal human epidermal cells were inoculated to a 96-well microplate housing a normal human epidermic keratinocyte growth medium (trade name HuMedia KG2, supplied by Kurabo Industries Ltd.) in a cell density of 2.0×10^4 cells per 96 wells.
Twenty-four (24) hours after the inoculation, the medium was exchanged with a normal human epidermic keratinocyte growth medium (trade name HuMedia KB2, supplied by Kurabo Industries Ltd.) containing the sample in a predetermined concentration, and the cultivation was continued.
As a positive control, a cultivation was performed by a procedure similar to above, except for using, instead of the sample, Nahlsgen (DL-2-amino-4-[(RSp)-(3-carboxymethylphenoxy)(methoxy)phosphoryl]butanoic acid, trade name GGsTop, supplied by Wako Pure Chemical Industries, Ltd.).
As a blank, a cultivation was performed a procedure similar to above, except for not using the sample.
After cultivation for 24 hours, the cells were disrupted by ultrasonication using a phosphoric acid buffer containing 100-μM phenylmethylsulfonyl fluoride, and the total amount of glutathione was quantitatively measured by the after-mentioned glutathione reductase recycling assay.
Specifically, the disrupted cell suspension was combined with reduced nicotinamide adenine dinucleotide phosphate and glutathione reductase, followed by reaction at 37° C. for 10 minutes.
Next, 0.1 M phosphate buffer solution (containing 0.5 M EDTA, pH 7.5) containing 10 mM 5,5′-dithiobis(2-nitrobenzoic acid) was added, the absorbance (at 450 nm) was measured immediately after addition, and after 30 minute-incubation, and the difference between two measurements ((absorbance after 30 minute-incubation)−(absorbance immediately after addition)) was defined as an index for glutathione synthesis quantity.
The total amount of glutathione in the disrupted cell suspension was calculated on the basis of a calibration curve plotted using oxidized glutathione. The protein content in the disrupted cell suspension was quantitatively determined using the Pierce Microplate BCA Protein Assay Kit (Thermo SCIENTIFIC). The glutathione synthesis quantity was evaluated for differences from the untreated specimen (blank) and from the positive control by a significant difference test using Student's t-test.

| Compound | GSH (pmol/μg protein) Mean (Conc. 10.00 μmol/L) [pmol/μg protein] | GSH (pmol/μg protein) Mean (Conc. 2.00 μmol/L) [pmol/μg protein] | GSH (pmol/μg protein) Mean (Conc. 50.00 μmol/L) [pmol/μg protein] | GSH (pmol/μg protein) Mean (Conc. 250.00 μmol/L) [pmol/μg protein] | glutathione (GSH) amount compared with the blank (untreated cells) (result in words, summary of Table 1) |
| --- | --- | --- | --- | --- | --- |
| COP(=O)(CC[C@H](N)C(=O)O)Oc1cccc(CC(=O)O)c1 (mixture of isomers) [Nahlsgen, DL-2-amino-4-[(RSp)-(3-carboxymethylphenoxy)(methoxy)phosphoryl]butanoic acid] | 44.7 |  |  |  |  |
| equal-amount mixture of D-2-amino-4-[(Rp)-(3-carboxymethylphenoxy)(methoxy)phosphoryl]butanoic acid monohydrate and L-2-amino-4-[(Sp)-(3-carboxymethylphenoxy)(methoxy)phosphoryl]butanoic acid monohydrate [Example 1] | 48.1 | 44.2 | 38.0 | 41.5 | significantly increased glutathione (GSH) amount as well as or better than the cells treated with Nahlsgen |
